Reference: article PMC6709486, “Safety, Tolerability, Pharmacokinetics, and Drug Interaction Potential of SPR741, an Intravenous Potentiator, after Single and Multiple Ascending Doses and When Combined with β-Lactam Antibiotics in Healthy Subjects” (Antimicrobial Agents and Chemotherapy, 2019)

test: clinical; settings: in vivo, iv
Source text: The drug-drug interaction study was a phase 1, single-center, multiarm, open-label, randomized, three-period crossover study. The objective was to evaluate the DDI potential and the PK of SPR741 coadministered with each of three partner antibiotics as well as the DDI and PK effects of three partner antibiotics administered alone and with SPR741. The study comprised a screening phase (day −28 to day −2), three treatment arms (day 1 to day 8 for each arm), and an end-of-study follow-up (day 9). Each subject participated in screening, one treatment arm, and the end-of-study follow-up. The maximum duration of participation for each subject was approximately 37 days. Subjects remained in the clinical unit from the day before dosing (day −1) to 24 h after the third and last dose period (day 8).
The DDI study consisted of three treatment arms with three dosing periods in each arm (days 1, 4, and 7). In random sequence, subjects received a single dose of study treatments with a 2-day washout period between each assigned treatment. In treatment arm 1, subjects received 400 mg of SPR741 i.v. over 1 h, 400 mg of SPR741 i.v. over 1 h plus 1.0 g of ceftazidime i.v. over 1 h, and 1.0 g of ceftazidime i.v. over 1 h. In treatment arm 2, subjects received 400 mg of SPR741 i.v. over 1 h, 400 mg of SPR741 i.v. over 1 h plus 4.5 g of piperacillin-tazobactam i.v. over 1 h, and 4.5 g of piperacillin-tazobactam i.v. over 1 h.
For both studies, maximum plasma concentration (Cmax), area under the concentration-time curve from time zero to the last measurable time point (AUC0-t), area under the concentration-time curve from time zero to infinity (AUC0-inf), time to maximum concentration (Tmax), terminal elimination rate constant (kel), terminal half-life (t1/2), terminal clearance (CL), and volume of distribution (V) were determined. PK parameters were determined using WinNonlin Phoenix, version 6.4.
For the SAD phase, blood samples were obtained predose (within 10 min), at 30 min following the start of infusion, at the end of infusion, and at 75, 90, 105, 120, and 150 min and 3, 4, 5, 6, 8, 10, 12, and 24 h following the start of infusion. For the MAD phase, blood was obtained predose (within 10 min), at 30 min following the start of infusion, at the end of infusion, and at 90 and 150 min and 3, 4, 5, 6, and 8 h following the start of infusion (day 1, first dose; day 14, last dose). Five additional blood samples were obtained at 10, 12, 24, 36, and 48 h following the start of infusion of the last dose (morning of day 14). For the DDI study, blood samples for determining plasma concentrations of SPR741 and each partner antibiotic were obtained predose (within −10 min), at 30 min, and at 1 h, 1 h 15 min, 1 h 30 min, 1 h 45 min, 2, 4, 8, 12, and 24 h postdose for each dose period. Plasma samples for drug concentration measurements were analyzed using a validated high-pressure liquid chromatography tandem mass spectrometry (HPLC-MS/MS) method. In brief, samples were spiked with a stable isotope-labeled internal standard and then extracted by protein precipitation before injection onto the HPLC-MS/MS system. Unique transitions were monitored for all test articles and internal standards. Plasma concentrations below the limit of quantitation were reported as 0.
In the SAD/MAD study, geometric means were calculated for AUC and Cmax values. Analyses using linear models were performed to assess dose proportionality (both single dose and multiple dose), time dependence, accumulation, and attainment of steady state (multiple dose). Dose proportionality was assessed using linear models for the SAD and MAD cohorts separately. […] Point estimates and 90% confidence intervals (CIs), using the residual mean square error obtained from the ANOVA, were constructed for the comparisons between treatments. The point and CI estimates were back-transformed to give estimates of the ratios (percentages) of the geometric LSMs and corresponding 90% CIs.

**Q.** What does the source list for `CC(C)(O/N=C(\C(=O)N[C@@H]1C(=O)N2C(C(=O)[O-])=C(C[n+]3ccccc3)CS[C@H]12)c1csc(N)n1)C(=O)O` [Ceftazidime, ceftazidime]?
**A.** AUC0-inf, geometric LSM, reference treatment: 163,000 h·ng/ml; AUC0-t: 162,000 ± 22,400 (13.8) ng·h/ml; AUC0-τ, geometric LSM, reference treatment: 163,000 h·ng/ml; AUC(0-inf): 163,000 ± 22,500 (13.8) ng·h/ml; CL: 6.3 ± 0.8 (12.8) liters/h; Cmax: 70,200 ± 5,790 (8.2) ng/ml; Cmax, geometric LSM, reference treatment: 70,300 ng/ml; Tmax: 1.0 ± 0 (0) h; V: 24.0 ± 3.1 (12.8) liters; kel: 0.26 ± 0.01 (3.1) 1/h; t1/2: 2.7 ± 0.1 (3.1) h

**Q.** Which “AUC0-inf, geometric LSM, reference treatment” value does the source give for `CCN1CCN(C(=O)N[C@@H](C(=O)N[C@@H]2C(=O)N3[C@@H]2SC(C)(C)[C@@H]3C(=O)O)c2ccccc2)C(=O)C1=O` [Piperacillin, piperacillin] here?
**A.** 228,000 h·ng/ml

**Q.** And the AUC0-t?
**A.** 240,000 ± 33,000 (13.7) ng·h/ml

**Q.** What about the “AUC0-τ, geometric LSM, reference treatment” value of the same molecule?
**A.** 228,000 h·ng/ml

**Q.** And the AUC(0-inf)?
**A.** 240,000 ± 33,000 (13.7) ng·h/ml

**Q.** And the CL?
**A.** 19.1 ± 3.0 (15.8) liters/h

**Q.** And the Cmax?
**A.** 154,000 ± 23,500 (15.2) ng/ml

**Q.** And the “Cmax, geometric LSM, reference treatment” value?
**A.** 145,000 ng/ml

**Q.** And the Tmax?
**A.** 1.0 ± 0 (1.2) h

**Q.** And the V?
**A.** 60.7 ± 10.6 (17.4) liters

**Q.** What about the kel of the same molecule?
**A.** 0.32 ± 0.02 (5.6) 1/h

**Q.** And the t1/2?
**A.** 2.2 ± 0.1 (5.7) h

**Q.** For `C[C@]1(Cn2ccnn2)[C@H](C(=O)O)N2C(=O)C[C@H]2S1(=O)=O` [Tazobactam, tazobactam], which “AUC0-inf, geometric LSM, reference treatment” value is on record?
**A.** 30,200 h·ng/ml

**Q.** And the AUC0-t?
**A.** 32,000 ± 5,060 (15.8) ng·h/ml

**Q.** What about the “AUC0-τ, geometric LSM, reference treatment” value of the same molecule?
**A.** 30,200 h·ng/ml

**Q.** What about the AUC(0-inf) of the same molecule?
**A.** 32,000 ± 5,060 (15.8) ng·h/ml

**Q.** What about the CL of the same molecule?
**A.** 16.1 ± 3.0 (18.4) liters/h

**Q.** What about the Cmax of the same molecule?
**A.** 18,500 ± 2,610 (14.1) ng/ml

**Q.** What about the “Cmax, geometric LSM, reference treatment” value of the same molecule?
**A.** 17,600 ng/ml

**Q.** And the Tmax?
**A.** 1.0 ± 0 (1.2) h

**Q.** And the V?
**A.** 41.6 ± 6.5 (15.6) liters

**Q.** And the kel?
**A.** 0.40 ± 0.12 (30.8) 1/h

**Q.** And the t1/2?
**A.** 1.9 ± 0.4 (22.4) h
